# Laboratory results as given in patent US11717536B2, “Treatment for periodontitis” (THE UNIVERSITY OF MELBOURNE, priority 2017, dated 2023).
# “And” between values parts separate entries of the source, which are not always exact repeats. Identical values can stand only once. Marks after values point to notes of the source that are not given here.
# How the values were obtained:
# [1] = test system: enamel substratum of the polymicrobial biofilm caries model; assay: Enamel subsurface demineralization in the polymicrobial biofilm caries model (transverse microradiography); parameters: species or system human; conditions: for integrated mineral loss ΔZd / lesion depth LD: twice daily 10 min pulses, mean ± SD
# Method: To model supragingival plaque six representative oral bacterial species, Streptococcus sanguinis (NCTC 7863), Streptococcus mutans Ingbritt, Actinomyces naeslundii (NCTC 10301), Veillonella parvula (ATCC 17745), Lactobacillus casei (NCDO 161) and Fusobacterium nucleatum (ATCC 10953) (Table 5) were cultured as a polymicrobial biofilm on a human enamel substratum in a constant-depth film fermenter (CDFF; Cardiff University, UK). The CDFF was housed in a 37° C. incubator under anaerobic conditions which were maintained by a constant flow of 5% CO2 in N2 at 1 L/h. The CDFF contained 15 removable polytetrafluoroethylene (PTFE) pans on a circular platform that was rotated at a constant speed of three rpm. The biofilms were grown on three enamel blocks (see below) in each PTFE pan using an artificial saliva medium (ASM, 2.5 g/L mucin type II (porcine, gastric, Sigma), 2.0 g/L bacteriological peptone (Oxoid), 2.0 g/L tryptone (Oxoid), 1.0 g/L yeast extract (Oxoid), 0.35 g/L NaCl, 0.2 g/L KCl, 0.2 mg/L vitamin K, 1 mg/L haemin and 0.1 g/L cysteine hydrochloride) at a constant flow rate of 30 mL/h. Prior to inoculation, the CDFF pan surfaces were conditioned for 24 h with ASM at a flow rate of 10 mL/h (McBain et al (2003) J Appl Microbiol. 94(4):655-66). In order to mimic in vivo bacterial growth conditions in the oral cavity with dietary sugar intake and to provide a high cariogenic challenge, a 1% (w/v) sucrose solution in ASM was pumped into the CDFF four times a day at four hourly intervals with a flow rate of 30 mL/h for 10 min.
# Three treatments were applied to the polymicrobial biofilms: 290 ppm fluoride with 220 ppm fluoride as SnF2 and 70 ppm fluoride as NaF (referred to as SnF2), 2% CPP-ACP and 2% CPP-ACP-SnF2. These treatments were compared with the control in which the test solution was replaced with ASM. Each treatment was applied using two 10 min pulses of the test solution in ASM with a flow rate of 30 mL/h. The first pulse started 30 min prior to the first sucrose pulse of the morning and the second started 3 h 30 min after the final sucrose pulse of the day.
# On day 6, 12 and 19 after inoculation four pans were removed aseptically from the CDFF and replaced with blank sterile pans. Enamel blocks from the pans were removed for bacterial enumeration and transverse microradiography.
# Three hundred and sixty extracted human third molars were obtained under University of Melbourne ethics approval (HREC #1237616) and sterilized by exposure to 4.1 kGy of gamma radiation. Enamel blocks were cut from the teeth with approximately 6×3×3 mm dimensions using a water-cooled diamond blade saw (Minitom, Struers) and polished using a RotoPol/RotoForce lapping instrument with 1200, 2400, 4000 grit lapping papers (Struers) and 3 and 1 μm diamond polishing pastes (Struers). The blocks were positioned in custom made CDFF pans at a depth of 100 μm and sealed in place with yellow sticky wax (Kemdent) and sterilized by exposure to 4.1 kGy of gamma radiation.
# Transverse microradiography was carried out essentially as described previously [Shen et al 2011]. […] The lesion depth (μm) was determined as the distance to the point at which the mineral content reaches 95% of the sound enamel value. The integrated mineral loss (IML), represented as ΔZd, was calculated by trapezoidal integration as the area between the sound-enamel densitometric profile and that of the demineralized enamel densitometric profile in vol % min·μm.
# [2] = test system: Lautropia mirabilis; assay: Clinical trial: plaque microbial analysis, Lautropia mirabilis; assay type: in vivo; conditions: 18.8 mg CPP-ACP sugar-free gum, 20 min six times per day, 14 days, vs no gum chewing; supragingival plaque
# Excerpt: Following the completion of the examination and supragingival plaque collection, participants received a supragingival scaling, clean and prophylaxis of all their teeth. At the completion of the last examination for leg 3, each participant received a professional fluoride treatment.
# Participants had all supragingival plaque collected from the buccal surfaces of their maxillary molars (teeth 17, 16, 26 & 27) with a sterile scaling instrument. The plaque samples from each tooth were placed in separate sterile tubes, to give four samples per participant.
# Genomic DNA was extracted from the plaque using a combination of mechanical disruption of the cells via a Precellys homogeniser and the chemical extraction and purification of the genomic DNA via the PowerLyzer PowerSoil DNA Isolation Kit (MoBio). Quantitation of the extracted DNA was achieved using a Qubit dsDNA High Sensitivity Assay kit (ThermoFisher), before 5 ng DNA was used as template in a PCR reaction that amplified the V4 variable region of the 16S ribosomal RNA gene and individually barcoded the PCR product from each sample. The barcoded DNA was then sequenced using an Ion Torrent Personal Genome machine and Torrent Suite™ Software (ThermoFisher).
# Analysis of the resulting sequence of the 16S ribosomal RNA gene enabled identification of the bacterial population present in each sample, down to the species level. […]
substance,measurement,setting,value
Casein phosphopeptide-amorphous calcium phosphate [CPP-ACP],integrated mineral loss ΔZd,[1]; Day 6,572.9 ± 97.80 vol % min · μm
same,lesion depth LD,[1]; Day 6,15.0 ± 2.1^a μm
same,integrated mineral loss ΔZd,[1]; Day 12,1075.3 ± 148.0^ad vol % min · μm
same,lesion depth LD,[1]; Day 12,26.3 ± 4.4^ade μm
same,integrated mineral loss ΔZd,[1]; Day 19,2105.4 ± 346.2^bd vol % min · μm
same,lesion depth LD,[1]; Day 19,52.3 ± 3.2^ad μm
same,rate of demineralization,[1]; between day 6 and day 19,112.1 vol % min·μm/day
same,reduction in rate of demineralization relative to control,"[1]; between day 6 and day 19, twice daily exposure",50.2% and 50%
same,"% decrease in relative abundance, Lautropia mirabilis",[2],70% (p < 0.05)
